The results in this text go back to ChEMBL document CHEMBL1145312, “Structure-activity relationships of triazolopyridine oxazole p38 inhibitors: identification of candidates for clinical development” (Bioorg Med Chem Lett, 2006).

The nature of experiment [1]: Inhibition of phosphorylase kinase.
The target in experiment [2] is Ribosomal protein S6 kinase (P70S6K) (Homo sapiens, UniProt P23443+Q9UBS0). Put plainly: Inhibition of P70S6K. It is filed as protein-complex assay.
Experiment [3] addresses Dual specificity tyrosine-phosphorylation-regulated kinase 1A (Homo sapiens, UniProt Q13627). Put plainly: Inhibition of DYRK1a.
Experiment [4] has as its target T1, Mitogen-activated protein kinase 12 (Homo sapiens, UniProt P53778).
T1 sequence (P53778 whole entry): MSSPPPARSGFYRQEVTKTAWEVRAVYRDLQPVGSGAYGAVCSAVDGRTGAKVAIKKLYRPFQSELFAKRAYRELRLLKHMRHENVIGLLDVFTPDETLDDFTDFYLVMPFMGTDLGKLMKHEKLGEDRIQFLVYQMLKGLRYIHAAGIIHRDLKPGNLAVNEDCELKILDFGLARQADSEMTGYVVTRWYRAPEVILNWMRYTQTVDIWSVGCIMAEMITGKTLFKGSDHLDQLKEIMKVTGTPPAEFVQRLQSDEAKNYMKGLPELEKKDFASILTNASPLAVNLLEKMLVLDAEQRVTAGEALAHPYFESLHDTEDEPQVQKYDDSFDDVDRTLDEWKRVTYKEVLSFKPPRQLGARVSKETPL
Put plainly: Inhibition of p38-gamma.

The target in experiment [5] is Cyclin-dependent kinase 2 (Homo sapiens, UniProt P24941). Put plainly: Inhibition of CDK2.
For experiment [6], the target named is AMP-activated protein kinase, AMPK. Put plainly: Inhibition of AMPK. It is filed as protein-complex assay.
A short description of experiment [7]: Inhibition of PKC.
Experiment [8] deals with Tyrosine-protein kinase Lck (Homo sapiens, UniProt P06239). Put plainly: Inhibition of Lck.
Sequence of Tyrosine-protein kinase Lck (P06239 whole entry): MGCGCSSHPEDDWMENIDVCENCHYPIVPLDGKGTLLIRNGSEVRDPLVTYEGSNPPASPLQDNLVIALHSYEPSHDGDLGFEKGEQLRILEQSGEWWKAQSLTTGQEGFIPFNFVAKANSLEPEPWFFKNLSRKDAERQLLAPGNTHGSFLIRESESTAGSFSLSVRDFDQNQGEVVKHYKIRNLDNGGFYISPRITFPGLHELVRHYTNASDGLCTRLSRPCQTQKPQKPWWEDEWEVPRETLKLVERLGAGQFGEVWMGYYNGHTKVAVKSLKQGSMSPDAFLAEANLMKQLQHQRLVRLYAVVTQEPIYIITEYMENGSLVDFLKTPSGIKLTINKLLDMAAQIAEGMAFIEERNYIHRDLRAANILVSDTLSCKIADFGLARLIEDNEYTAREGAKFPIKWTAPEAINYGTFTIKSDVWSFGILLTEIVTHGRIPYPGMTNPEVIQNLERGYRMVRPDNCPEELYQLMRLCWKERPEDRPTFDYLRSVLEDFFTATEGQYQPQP
Experiment [9] deals with Dual specificity mitogen-activated protein kinase kinase 1 (Homo sapiens, UniProt Q02750). Put plainly: Inhibition of MKK1.
Sequence of Dual specificity mitogen-activated protein kinase kinase 1 (Q02750 whole entry): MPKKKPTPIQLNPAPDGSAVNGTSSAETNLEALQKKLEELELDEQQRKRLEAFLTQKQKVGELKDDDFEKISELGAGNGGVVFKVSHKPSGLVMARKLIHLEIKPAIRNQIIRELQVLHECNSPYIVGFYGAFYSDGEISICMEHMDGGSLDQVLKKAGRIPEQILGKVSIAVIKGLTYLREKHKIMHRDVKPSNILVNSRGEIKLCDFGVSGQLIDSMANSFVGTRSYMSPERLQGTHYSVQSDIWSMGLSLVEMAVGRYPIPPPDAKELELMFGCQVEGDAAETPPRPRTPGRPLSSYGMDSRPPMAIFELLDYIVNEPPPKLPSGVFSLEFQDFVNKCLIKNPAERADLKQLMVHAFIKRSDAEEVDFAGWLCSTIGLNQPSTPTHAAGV
The target in experiment [10] is Rho-associated protein kinase 2 (Homo sapiens, UniProt O75116). Put plainly: Inhibition of ROCK2.
Sequence of Rho-associated protein kinase 2 (O75116 whole entry): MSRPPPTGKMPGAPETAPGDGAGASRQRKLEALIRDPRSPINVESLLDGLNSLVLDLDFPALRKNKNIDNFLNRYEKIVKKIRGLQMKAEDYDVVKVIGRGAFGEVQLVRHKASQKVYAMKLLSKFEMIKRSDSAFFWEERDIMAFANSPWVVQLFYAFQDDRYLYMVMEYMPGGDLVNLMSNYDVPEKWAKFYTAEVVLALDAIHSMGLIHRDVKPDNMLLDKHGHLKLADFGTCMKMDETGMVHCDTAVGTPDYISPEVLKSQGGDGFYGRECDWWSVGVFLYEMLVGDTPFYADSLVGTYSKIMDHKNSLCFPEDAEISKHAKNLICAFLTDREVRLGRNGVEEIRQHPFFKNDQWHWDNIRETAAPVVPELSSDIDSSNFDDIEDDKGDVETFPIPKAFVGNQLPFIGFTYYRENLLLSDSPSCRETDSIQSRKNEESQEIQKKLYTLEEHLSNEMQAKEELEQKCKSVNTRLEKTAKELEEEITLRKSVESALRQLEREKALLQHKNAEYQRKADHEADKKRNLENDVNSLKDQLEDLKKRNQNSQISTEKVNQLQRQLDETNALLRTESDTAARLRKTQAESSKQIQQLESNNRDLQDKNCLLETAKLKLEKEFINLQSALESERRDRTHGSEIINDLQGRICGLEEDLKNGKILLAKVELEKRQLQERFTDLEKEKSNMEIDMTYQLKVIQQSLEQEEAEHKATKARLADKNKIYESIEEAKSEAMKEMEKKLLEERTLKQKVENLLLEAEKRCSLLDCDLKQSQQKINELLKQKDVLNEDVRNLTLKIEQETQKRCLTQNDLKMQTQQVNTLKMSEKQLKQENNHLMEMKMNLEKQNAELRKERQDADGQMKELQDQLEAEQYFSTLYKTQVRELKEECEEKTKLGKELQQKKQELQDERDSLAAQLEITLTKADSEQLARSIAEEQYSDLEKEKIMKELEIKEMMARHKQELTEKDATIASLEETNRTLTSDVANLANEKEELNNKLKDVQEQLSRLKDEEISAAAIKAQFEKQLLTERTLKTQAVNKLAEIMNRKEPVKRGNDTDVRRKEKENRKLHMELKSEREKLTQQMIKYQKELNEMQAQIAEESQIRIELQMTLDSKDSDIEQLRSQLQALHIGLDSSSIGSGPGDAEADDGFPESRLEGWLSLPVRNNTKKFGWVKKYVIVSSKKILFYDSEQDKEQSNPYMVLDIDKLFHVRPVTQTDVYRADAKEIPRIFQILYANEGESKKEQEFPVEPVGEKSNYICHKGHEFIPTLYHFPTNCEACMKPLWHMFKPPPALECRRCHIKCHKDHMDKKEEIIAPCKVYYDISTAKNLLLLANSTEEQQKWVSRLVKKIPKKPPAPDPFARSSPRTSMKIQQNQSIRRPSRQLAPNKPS
The target in experiment [11] is T2, Mitogen-activated protein kinase 13 (Homo sapiens, UniProt O15264).
T2 sequence (O15264 whole entry): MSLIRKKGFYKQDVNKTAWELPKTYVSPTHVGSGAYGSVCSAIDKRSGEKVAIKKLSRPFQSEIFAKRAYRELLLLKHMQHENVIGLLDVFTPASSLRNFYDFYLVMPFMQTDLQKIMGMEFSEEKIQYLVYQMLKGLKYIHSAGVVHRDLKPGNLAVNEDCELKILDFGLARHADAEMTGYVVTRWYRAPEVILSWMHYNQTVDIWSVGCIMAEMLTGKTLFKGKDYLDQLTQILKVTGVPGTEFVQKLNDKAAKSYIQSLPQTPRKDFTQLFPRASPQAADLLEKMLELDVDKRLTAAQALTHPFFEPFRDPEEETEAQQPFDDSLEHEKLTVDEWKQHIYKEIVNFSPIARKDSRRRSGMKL
Put plainly: Inhibition of p38delta.

For another experiment, the system named is Monocyte. Put plainly: Inhibition of LPS-induced TNFalpha production in human monocytes. It is filed as functional, cell-based.
In experiment [12] the target is T3, 3-phosphoinositide-dependent protein kinase 1 (Homo sapiens, UniProt O15530).
T3 sequence (O15530 whole entry): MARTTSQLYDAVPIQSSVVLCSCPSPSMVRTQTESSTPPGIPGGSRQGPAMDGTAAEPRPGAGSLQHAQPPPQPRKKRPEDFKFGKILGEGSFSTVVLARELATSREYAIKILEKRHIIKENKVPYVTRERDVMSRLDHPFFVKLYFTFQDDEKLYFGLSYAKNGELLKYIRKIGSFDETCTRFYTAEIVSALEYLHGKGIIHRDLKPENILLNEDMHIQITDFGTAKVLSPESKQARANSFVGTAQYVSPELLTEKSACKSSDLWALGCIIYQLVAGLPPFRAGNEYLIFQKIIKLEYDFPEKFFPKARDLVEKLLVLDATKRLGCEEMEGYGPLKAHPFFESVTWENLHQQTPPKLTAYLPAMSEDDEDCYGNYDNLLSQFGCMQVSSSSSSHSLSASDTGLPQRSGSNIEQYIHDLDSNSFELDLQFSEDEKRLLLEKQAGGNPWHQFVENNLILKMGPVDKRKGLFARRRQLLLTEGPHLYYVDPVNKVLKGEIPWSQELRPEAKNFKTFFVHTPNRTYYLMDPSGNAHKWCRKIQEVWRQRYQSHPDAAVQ
Put plainly: Inhibition of PDK1.

The target in experiment [13] is Mitogen-activated protein kinase 14 (Homo sapiens, UniProt Q16539). Put plainly: Inhibition of p38alpha.
Sequence of Mitogen-activated protein kinase 14 (Q16539 whole entry): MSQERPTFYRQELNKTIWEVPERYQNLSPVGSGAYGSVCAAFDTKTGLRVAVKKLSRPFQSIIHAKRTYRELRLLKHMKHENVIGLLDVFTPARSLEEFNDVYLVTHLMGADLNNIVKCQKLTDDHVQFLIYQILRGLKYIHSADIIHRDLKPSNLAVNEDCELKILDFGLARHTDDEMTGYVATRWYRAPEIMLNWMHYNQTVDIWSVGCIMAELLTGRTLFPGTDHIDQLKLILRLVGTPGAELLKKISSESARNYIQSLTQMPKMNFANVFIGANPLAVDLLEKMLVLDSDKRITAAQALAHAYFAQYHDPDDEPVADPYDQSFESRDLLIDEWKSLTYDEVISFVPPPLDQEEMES
Experiment [14] deals with Protein kinase C alpha type (Homo sapiens, UniProt P17252). Put plainly: Inhibition of PKCalpha.
In experiment [15] the target is T4, Serine/threonine-protein kinase Sgk1 (Homo sapiens, UniProt O00141).
T4 sequence (O00141 whole entry): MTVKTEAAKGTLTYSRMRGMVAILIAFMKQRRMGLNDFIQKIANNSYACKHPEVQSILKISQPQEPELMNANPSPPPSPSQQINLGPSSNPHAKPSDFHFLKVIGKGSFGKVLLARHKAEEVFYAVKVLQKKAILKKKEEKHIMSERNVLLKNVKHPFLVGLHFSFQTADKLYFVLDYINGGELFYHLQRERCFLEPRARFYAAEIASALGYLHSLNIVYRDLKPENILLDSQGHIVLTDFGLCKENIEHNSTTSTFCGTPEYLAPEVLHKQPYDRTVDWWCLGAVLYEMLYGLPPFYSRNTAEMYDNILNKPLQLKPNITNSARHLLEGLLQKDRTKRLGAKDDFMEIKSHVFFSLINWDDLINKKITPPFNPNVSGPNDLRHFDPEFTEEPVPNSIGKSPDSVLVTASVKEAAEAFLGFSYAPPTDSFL
Put plainly: Inhibition of SGK.

The target in experiment [16] is Glycogen synthase kinase-3 beta (Homo sapiens, UniProt P49841). Put plainly: Inhibition of GSK3-beta.
Sequence of Glycogen synthase kinase-3 beta (P49841 whole entry): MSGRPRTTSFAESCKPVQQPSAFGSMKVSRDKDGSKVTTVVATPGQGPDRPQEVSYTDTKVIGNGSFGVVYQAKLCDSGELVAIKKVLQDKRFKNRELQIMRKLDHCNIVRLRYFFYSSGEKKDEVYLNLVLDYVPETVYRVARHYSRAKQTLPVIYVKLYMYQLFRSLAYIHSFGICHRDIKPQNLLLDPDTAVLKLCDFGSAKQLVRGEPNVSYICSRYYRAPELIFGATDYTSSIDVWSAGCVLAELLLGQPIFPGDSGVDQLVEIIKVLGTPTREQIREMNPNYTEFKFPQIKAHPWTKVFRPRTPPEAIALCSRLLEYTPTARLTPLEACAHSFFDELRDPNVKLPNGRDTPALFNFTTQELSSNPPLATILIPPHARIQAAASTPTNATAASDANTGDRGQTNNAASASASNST
Experiment [17] addresses Ribosomal protein S6 kinase alpha-1 (Homo sapiens, UniProt Q15418). Put plainly: Inhibition of MAPKAP-K1a.
Experiment [18] can be described thus: Inhibition of PI3K.
The target in experiment [19] is c-Jun N-terminal kinase, JNK (Homo sapiens, UniProt P45983+P53779+P45984). Put plainly: Inhibition of JNK. It counts as protein assay.
For the next experiment, the species on record is Homo sapiens. Put plainly: Inhibition of LPS-induced TNFalpha production in human whole blood. It counts as functional, organism-based.
Experiment [20] addresses MAP kinase-activated protein kinase 2 (Homo sapiens, UniProt P49137). Put plainly: Inhibition of MAPKAP-K2.

Sequence of Ribosomal protein S6 kinase alpha-1 (Q15418 whole entry): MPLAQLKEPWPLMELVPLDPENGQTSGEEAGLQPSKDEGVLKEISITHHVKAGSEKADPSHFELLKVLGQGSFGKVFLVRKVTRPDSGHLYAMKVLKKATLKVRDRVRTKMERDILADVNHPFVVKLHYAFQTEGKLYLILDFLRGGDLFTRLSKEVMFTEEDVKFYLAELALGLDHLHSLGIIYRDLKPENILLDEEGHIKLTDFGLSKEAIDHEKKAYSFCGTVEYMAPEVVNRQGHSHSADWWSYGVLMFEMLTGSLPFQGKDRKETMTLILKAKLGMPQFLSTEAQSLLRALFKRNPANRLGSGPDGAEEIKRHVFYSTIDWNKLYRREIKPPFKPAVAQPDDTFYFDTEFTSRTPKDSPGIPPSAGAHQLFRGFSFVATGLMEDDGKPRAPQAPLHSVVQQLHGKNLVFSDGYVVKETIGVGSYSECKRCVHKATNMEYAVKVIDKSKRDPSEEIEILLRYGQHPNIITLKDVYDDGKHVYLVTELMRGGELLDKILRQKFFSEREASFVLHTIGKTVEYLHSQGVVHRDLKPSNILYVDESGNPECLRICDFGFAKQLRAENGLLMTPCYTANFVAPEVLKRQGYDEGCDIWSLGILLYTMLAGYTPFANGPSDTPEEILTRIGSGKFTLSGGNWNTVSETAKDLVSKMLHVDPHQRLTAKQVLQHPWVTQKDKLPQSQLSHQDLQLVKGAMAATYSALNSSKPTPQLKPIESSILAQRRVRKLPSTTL
Sequence of MAP kinase-activated protein kinase 2 (P49137 whole entry): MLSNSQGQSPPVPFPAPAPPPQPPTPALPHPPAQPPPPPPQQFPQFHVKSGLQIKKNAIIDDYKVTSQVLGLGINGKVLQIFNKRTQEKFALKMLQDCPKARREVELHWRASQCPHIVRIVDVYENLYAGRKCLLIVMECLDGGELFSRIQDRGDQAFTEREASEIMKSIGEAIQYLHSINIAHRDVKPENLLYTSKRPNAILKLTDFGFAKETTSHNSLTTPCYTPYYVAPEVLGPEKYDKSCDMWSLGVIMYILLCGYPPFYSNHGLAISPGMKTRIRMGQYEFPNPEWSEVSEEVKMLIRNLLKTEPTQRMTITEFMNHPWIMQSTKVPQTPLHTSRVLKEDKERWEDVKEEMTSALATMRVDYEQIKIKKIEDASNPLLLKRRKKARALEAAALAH

Broadly, the IC50 is the concentration that inhibits the measured activity by half. Low values mean greater potency in that assay, high ones weaker potency in that assay. On to `CC(C)(C)c1nnc2ccc(-c3ocnc3-c3ccc(F)cc3F)cn12`, for which the concentration for half-maximal inhibition (IC50) in experiment [1], in experiment [2], in [3], in experiment [4], in experiment [5] and in experiment [6] was above 10 µM throughout. Also, the IC50 in experiment [7] is above 10 µM; in [8], above 10 µM; in experiment [9], above 10 µM; in experiment [10], above 10 µM; in experiment [11] it was above 10 µM; with Monocyte it was 0.0126 µM. The IC50 in experiment [12] was above 10 µM; in experiment [13], 0.0011 µM; in [14] it was above 10 µM; in experiment [15], above 10 µM; in experiment [16], above 10 µM; in experiment [17], above 10 µM. Besides, the concentration for half-maximal inhibition (IC50) in experiment [18] is above 10 µM; in experiment [19], above 10 µM; in the experiment filed under Homo sapiens, 0.076 µM; in experiment [20], above 10 µM.
With `CC(C)(C)c1nnc2ccc(-c3ocnc3-c3cc(F)c(F)cc3F)cn12`, the IC50 in [1], in experiment [2], in experiment [3], in experiment [4], in experiment [5] and in experiment [6] was above 10 µM each time. Also, the IC50 in experiment [7] was above 10 µM; in [9] it was above 10 µM; in [10], above 10 µM; in [11], above 10 µM; in the experiment with Monocyte, 0.0083 µM; in experiment [12], above 10 µM. Further, the IC50 in experiment [13] was 0.0018 µM; in experiment [14], above 10 µM; in experiment [15], above 10 µM; in experiment [16], above 10 µM; in experiment [17], above 10 µM; in [18] it was above 10 µM. The IC50 in [19] is above 10 µM; in the experiment listed under Homo sapiens, 0.063 µM; in experiment [20] it was above 10 µM.
As for `CCNc1nnc2ccc(-c3ocnc3-c3ccc(F)cc3)cn12`, the IC50 in experiment [1], in [2], in experiment [3], in experiment [4], in experiment [5] and in experiment [6] was above 10 µM in each case. In addition, the IC50 in experiment [7] is above 10 µM; in [8], above 10 µM; in [9] it was above 10 µM; in experiment [10], above 10 µM; in experiment [11], above 10 µM; in the experiment with Monocyte it was 0.052 µM. The IC50 in experiment [12] was above 10 µM; in [13] it was 0.0076 µM; in experiment [14], above 10 µM; in experiment [15] it was above 10 µM; in [16] it was above 10 µM; in experiment [17], above 10 µM. For the same compound, the IC50 in experiment [18] was above 10 µM; in experiment [19] it was above 10 µM; in the experiment listed under Homo sapiens it was 0.865 µM; in experiment [20], above 10 µM.
Regarding `CC(C)c1nnc2ccc(-c3c[nH]nc3-c3cc(F)ccc3F)cn12`, the 50% inhibitory concentration (IC50) in experiment [1], in [2], in [3], in experiment [4], in experiment [5] and in [6] was above 10 µM each time. Besides, the IC50 in [7] is above 10 µM; in [8] it was above 10 µM; in [9], above 10 µM; in experiment [10], above 10 µM; in experiment [11] it was above 10 µM; in the experiment on Monocyte, 0.0141 µM. For the same compound, the IC50 in [12] is above 10 µM; in experiment [13] it was 0.0028 µM; in [14] it was above 10 µM; in experiment [15], above 10 µM; in experiment [16], above 10 µM; in experiment [17] it was above 10 µM. Also, the IC50 in [18] is above 10 µM; in experiment [19] it was above 10 µM; in the experiment listed under Homo sapiens, 0.18 µM; in experiment [20] it was above 10 µM.
Take `CC(C)c1nnc2ccc(-c3ocnc3-c3ccccc3)cn12`: the 50% inhibitory concentration (IC50) in [1], in [2], in [3], in [4], in [5] and in [6] was above 10 µM each time. The IC50 in [7] was above 10 µM; in experiment [9], above 10 µM; in experiment [10], above 10 µM; in experiment [11] it was above 10 µM; in the experiment on Monocyte, 0.0714 µM; in [12], above 10 µM. The IC50 in [13] is 0.0096 µM; in experiment [14], above 10 µM; in experiment [15] it was above 10 µM; in experiment [16] it was above 10 µM; in experiment [17], above 10 µM; in experiment [18] it was above 10 µM. The values for the IC50 (in experiment [19]; in the experiment filed under Homo sapiens; in experiment [20]) were above 10 µM, 0.973 µM and above 10 µM, respectively.
